Patent publication US9517231B2, “Methods and pharmaceutical compositions for the treatment of symptoms of anxiety and panic using beta adrenergic receptor antagonist and muscarinic receptor antagonist combinations” (priority 2014, dated 2016)
pKi: −log10 of the molar value. “Also recorded” adds a separate entry of the source. Where a name gives a salt, the structure may show the parent alone. Read-outs that look alike come from different tables or passages of the source.

Tests used:
[1] = taste and mouth paresthesia of dose forms in humans
[2] = oral atenolol 50-200 mg; ~10 bpm on placebo; cited from earlier work
[3] = oral atenolol 50 mg, oral scopolamine HBr 0.3 mg; baseline and during sauna heat; cited from earlier work
[4] = cited from earlier work
[5] = healthy volunteers, CO2 inhalation; cited from earlier work
[6] = target: muscarinic acetylcholine receptors, all five human receptor subtypes; conditions: cited from earlier work
[7] = liquid compositions, under or on the tongue
[8] = sublingual solid dose forms, HCl
[9] = oral 40 mg one hour prior to TSST

CC(C)NCC(O)COc1cccc2ccccc12 (stereo not drawn) [Propranolol HCl]
mouth paresthesia [1, 7]: produces mouth paresthesia | taste [1, 7]: “acidic” and “medicine” taste | mouth/tongue paresthesia [1, 8]: delayed paresthesia of the tongue | taste [1, 8]: “acidic” and “medicine” taste

CC(C)NCC(O)COc1ccc(CC(N)=O)cc1 (stereo not drawn) [atenolol]
suppresses heart rate [2]: 23-24 bpm | cardiovascular effects (heart rate, blood pressure) [3]: reduced heart rate and blood pressure | mouth/tongue paresthesia ([1]; sublingual solid dose forms): neither property was observed; also recorded: lacked these undesirable characteristics; also recorded: do not produce mouth paresthesia | taste ([1]; sublingual solid dose forms): neither property was observed; also recorded: lacked these undesirable characteristics; also recorded: do not have a taste

CC(C)NCC(O)COc1cccc2ccccc12 (stereo not drawn) [propranolol]
BP or subjective stress ([4]; 80 mg one hour prior to TSST): did not significantly affect | heart rate ([4]; 80 mg one hour prior to TSST): significantly reduced | salivary cortisol ([4]; 80 mg one hour prior to TSST): increased | salivary cortisol response ([4]; daily oral 80 mg): did not affect | cognitive flexibility during stress [4, 9]: enhanced | heart rate [4, 9]: significantly reduced | systolic blood pressure [4, 9]: reduced | heart rate [5]: significantly decreased | psychic anxiolytic benefit [5]: did not provide | mouth/tongue paresthesia ([1]; sublingual solid dose forms): Paresthesia | taste ([1]; sublingual solid dose forms): undesirable taste

CN1[C@@H]2C[C@@H](OC(=O)[C@H](CO)c3ccccc3)C[C@H]1[C@@H]1O[C@@H]12 [scopolamine]
pKi [6]: 8.28 to 9.47 | cardiovascular effects (heart rate, blood pressure) [3]: essentially no effect
